# Test results: ChEMBL document CHEMBL1201862, “PubChem BioAssay data set” (2004)
#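 Each compound was tested at five concentrations against cells in 96-well plates for 48 hours. GI50 marks 50% less growth.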 Calls of active or inactive are those of the source. No stated cut-off is given here; in the data, active = GI50 up to about 1.1 µM and inactive = higher.
# Assays:
# Test in all cases: inhibition of tumour cell growth, NCI panel, 48 h
# HOP-18 = test system: HOP-18
# DMS-273 = test system: DMS-273
# M19-MEL = test system: M19-MEL
# RXF 631 = test system: RXF 631
# KM-20L2 = test system: KM-20L2
# DMS-114 = test system: DMS-114
# SNB-78 = test system: SNB-78
# DLD-1 = test system: DLD-1
# XF498 = test system: XF498
SMILES,GI50 (HOP-18),GI50 (DMS-273),GI50 (M19-MEL),GI50 (RXF 631),GI50 (KM-20L2),GI50 (DMS-114),GI50 (SNB-78),GI50 (DLD-1),GI50 (XF498)
CC1=C(/C=C/C(C)=C/C=C/C(C)=C/C=C/C=C(C)/C=C/C=C(C)/C=C/C2=C(C)C(=O)C(O)CC2(C)C)C(C)(C)CC(O)C1=O (stereo not given),> 100 µM (inactive),> 100 µM (inactive),> 100 µM (inactive),> 100 µM (inactive),> 100 µM (inactive),> 100 µM (inactive),> 100 µM (inactive),> 100 µM (inactive),–
CCN(CC)c1ccc(C(=C2C=CC(=[N+](CC)CC)C=C2)c2ccccc2)cc1,–,0.0304 µM (active),0.0379 µM (active),–,0.0302 µM (active),0.0156 µM (active),0.044 µM (active),0.0274 µM (active),0.0149 µM (active)
c1ccc2c3nc(C4CCCC4)nc-3c(NC3CCCC3)[nH]c2c1,16 µM (inactive),8.43 µM (inactive),13.2 µM (inactive),–,5 µM (inactive),17.8 µM (inactive),45.3 µM (inactive),30 µM (inactive),19.6 µM (inactive)
C=C1COC(O)(C2OCOC(C3CC(=O)NC(=O)C3)C2O)C1C (stereo not given),0.00357 µM (active),0.00417 µM (active),0.00156 µM (active),0.0037 µM (active),0.00281 µM (active),0.00319 µM (active),0.00718 µM (active),0.00416 µM (active),< 0.01 µM (active)
C=C(c1nc2ccc(Cl)cc2[nH]c1=O)C(O)c1ccc(C(O)C(=O)c2nc3ccc(Cl)cc3[nH]c2=O)cc1 (stereo not given),–,> 100 µM (inactive),> 100 µM (inactive),> 100 µM (inactive),62.4 µM (inactive),35.4 µM (inactive),> 100 µM (inactive),> 100 µM (inactive),> 100 µM (inactive)
O=c1c2cc3ccccc3n2c(=O)c2cc3ccccc3n12,> 100 µM (inactive),> 100 µM (inactive),> 100 µM (inactive),–,> 100 µM (inactive),> 100 µM (inactive),> 100 µM (inactive),> 100 µM (inactive),> 100 µM (inactive)
CC(C)N(O)C(=N)c1ccccc1,0.0473 µM (active),–,> 100 µM (inactive),–,> 100 µM (inactive),> 100 µM (inactive),> 100 µM (inactive),> 100 µM (inactive),–
CCOC(=O)/N=c1\ss/c(=N\C(=S)N(C)C)n1-c1ccccc1,> 10 µM (inactive),2.15 µM (inactive),0.834 µM (active),–,> 10 µM (inactive),0.453 µM (active),36.3 µM (inactive),> 10 µM (inactive),28.8 µM (inactive)
CCOC(=O)/C(C#N)=C1\N[C@H](C(=O)OCC)CO1,> 100 µM (inactive),–,> 100 µM (inactive),> 100 µM (inactive),> 100 µM (inactive),–,> 100 µM (inactive),> 100 µM (inactive),31.9 µM (inactive)
CCC(=O)Nc1nc2c(ncn2C2OC(COC(=O)CC)C(OC(=O)CC)C2OC(=O)CC)c(=O)[nH]1 (stereo not given),–,> 100 µM (inactive),> 100 µM (inactive),–,> 100 µM (inactive),–,> 100 µM (inactive),–,–
O=c1c2cc(Br)ccc2[nH]c(=S)n1-c1ccc(Br)cc1,> 100 µM (inactive),–,> 100 µM (inactive),–,> 100 µM (inactive),> 100 µM (inactive),> 100 µM (inactive),> 100 µM (inactive),–
O=C(CCc1nnc(S)[nH]1)NC12CC3CC(CC(C3)C1)C2,> 100 µM (inactive),> 100 µM (inactive),> 100 µM (inactive),> 100 µM (inactive),> 100 µM (inactive),> 100 µM (inactive),> 100 µM (inactive),> 100 µM (inactive),> 100 µM (inactive)
N#CCCN(CCC#N)c1ccc(/C=N\c2ccc(F)cc2)cc1,> 100 µM (inactive),4.61 µM (inactive),1.63 µM (inactive),> 45.8 µM (inactive),0.152 µM (active),13.8 µM (inactive),> 100 µM (inactive),0.347 µM (active),> 100 µM (inactive)
CN(C)C(=N/O)/C(=N\O)N(C)C,> 100 µM (inactive),> 100 µM (inactive),> 100 µM (inactive),> 100 µM (inactive),> 100 µM (inactive),> 100 µM (inactive),> 100 µM (inactive),> 100 µM (inactive),> 100 µM (inactive)
O=CCCCC(Sc1ccccc1)Sc1ccccc1,–,17.3 µM (inactive),18.1 µM (inactive),20.6 µM (inactive),39.5 µM (inactive),23.9 µM (inactive),15.3 µM (inactive),15.3 µM (inactive),19 µM (inactive)
COC(=O)C(=O)C(C#N)c1ccc(CC#N)cc1 (stereo not given),–,> 100 µM (inactive),> 100 µM (inactive),–,> 100 µM (inactive),–,> 100 µM (inactive),> 100 µM (inactive),> 100 µM (inactive)
CC1(C)OC(=O)C(=C2CCC(C(=O)Nc3cccc(C(F)(F)F)c3)N2)C(=O)O1 (stereo not given),> 100 µM (inactive),> 100 µM (inactive),60.8 µM (inactive),–,68.4 µM (inactive),37.4 µM (inactive),87.7 µM (inactive),> 100 µM (inactive),31.3 µM (inactive)
CCOc1ccc(/N=C/c2ccnc3ccccc23)cc1,> 100 µM (inactive),28.1 µM (inactive),> 71.1 µM (inactive),–,43.7 µM (inactive),17.3 µM (inactive),> 60.1 µM (inactive),4.57 µM (inactive),> 100 µM (inactive)
CCO[C@@H]1C2C=CC(C2)[C@H]1[N+](=O)[O-] (stereo not given in full),> 100 µM (inactive),> 100 µM (inactive),> 100 µM (inactive),–,> 100 µM (inactive),> 100 µM (inactive),> 100 µM (inactive),> 100 µM (inactive),> 100 µM (inactive)
O=C[C@]12CC=C3OC4OC5(CCCCC5)OC4[C@H]3[C@H]1C(=O)C=CC2=O (stereo not given in full),–,39.2 µM (inactive),23.1 µM (inactive),35.6 µM (inactive),–,19.1 µM (inactive),14.2 µM (inactive),17.3 µM (inactive),14.6 µM (inactive)
O=[N+]([O-])c1cccc(C2=NN(c3ccccc3)C[N+](c3ccc(Br)cc3)=N2)c1,43.7 µM (inactive),77.4 µM (inactive),70.8 µM (inactive),–,> 100 µM (inactive),–,34.4 µM (inactive),96.8 µM (inactive),> 100 µM (inactive)
CCCC/C=C/C=C/C=C/CCCCCCCC(=O)OCC(COC(=O)CCCCCCC/C=C/C1C=CC(CCCC)C(C(=O)O)C1C(=O)O)OC(=O)CCCCCCC/C=C/C=C/C=C/CCCC.OCCNCO (stereo not given),17.2 µM (inactive),16.3 µM (inactive),17.5 µM (inactive),–,20.9 µM (inactive),10.9 µM (inactive),–,20 µM (inactive),–
c1cc(-c2cn[nH]c2)cc(-c2cn[nH]c2)c1,–,30.6 µM (inactive),71.3 µM (inactive),38 µM (inactive),33 µM (inactive),45.9 µM (inactive),80.7 µM (inactive),33.7 µM (inactive),–
COc1ccc(/C=C2\SC(c3ccc(OC)cc3)N(NC(=O)Cc3ccccc3)C2=O)cc1 (stereo not given),> 100 µM (inactive),> 100 µM (inactive),> 100 µM (inactive),–,–,> 100 µM (inactive),–,> 100 µM (inactive),–
COc1ccc(/C=N/N=C(\N)NO)cc1F,13.8 µM (inactive),17.5 µM (inactive),21.6 µM (inactive),14.5 µM (inactive),9.02 µM (inactive),–,97.3 µM (inactive),53.7 µM (inactive),25.3 µM (inactive)
COc1ccc2nc3ccccc3c(NCCN(C)CCCl)c2c1,2.06 µM (inactive),0.412 µM (active),0.906 µM (active),–,0.438 µM (active),0.752 µM (active),0.902 µM (active),0.524 µM (active),0.514 µM (active)
O=C(CC1=Nc2nnc(-c3nnc4n3C(=O)C(CC(=O)c3cccnc3)=N4)n2C1=O)c1cccnc1,–,> 100 µM (inactive),> 100 µM (inactive),> 100 µM (inactive),> 100 µM (inactive),> 100 µM (inactive),> 100 µM (inactive),> 100 µM (inactive),–
CCC1(O)C(=O)OCc2c1cc1n(c2=O)Cc2cc3ccc(C=O)cc3nc2-1 (stereo not given),3.47 µM (inactive),0.484 µM (active),2.89 µM (inactive),2.38 µM (inactive),5.68 µM (inactive),0.607 µM (active),19.9 µM (inactive),12.4 µM (inactive),2.7 µM (inactive)
O=C1/C(=C/c2ccccc2Cl)COc2ccccc21,11.8 µM (inactive),15 µM (inactive),18.6 µM (inactive),19.2 µM (inactive),18.5 µM (inactive),18 µM (inactive),19.3 µM (inactive),15.3 µM (inactive),15.6 µM (inactive)
COc1ccc(CC(C)N)cc1 (stereo not given) [PARA-METHOXYAMPHETAMINE],> 100 µM (inactive),> 100 µM (inactive),–,> 100 µM (inactive),> 100 µM (inactive),> 100 µM (inactive),> 100 µM (inactive),> 100 µM (inactive),> 100 µM (inactive)
